Consider 17 compounds from patent US20080124285A1, “Merocyanine Derivatives for Cosmetic Use” (priority 2003, published 2008).

Molecules are shown by their SMILES.

The nature of the first series: UV absorption maximum (λmax) in solvent. In kind it is physicochemical. To be noted: acetonitril; preparation example.
In turn, `CCOC(=O)/C(C#N)=C1\C=C(NCCNC2=C/C(=C(/C#N)C(=O)OCC)CC(C)(C)C2)CC(C)(C)C1` [MC02] came in with a λmax of 389 nm.

Staying with this series, now noted: ethanol; preparation example.
For the compound `CCOC(=O)C(C(=O)OCC)=C1C=C(NC2CCCCC2NC2=CC(=C(C(=O)OCC)C(=O)OCC)CC(C)(C)C2)CC(C)(C)C1` (centres unmarked) [MC10], the λmax is given as 373 nm. As to `CCOC(=O)/C(C#N)=C1\C=C(N2CCN(C3=C/C(=C(/C#N)C(=O)OCC)CC(C)(C)C3)CC2)CC(C)(C)C1` [MC07], the λmax was 406 nm.

Staying with this series, now noted: in Acetonitril; Table MC1a (intermediates, UV-B absorbers).
Consider `CC1(C)CC(=O)C=C(NC2CCCCC2NC2=CC(=O)CC(C)(C)C2)C1` (centres unmarked) [MC08a], for which the “λmax [nm]” value is reported as 295(Acetonitril) nm.

Still in this series, the particulars now being: in Acetonitrile; Table MC1.
For `CC1(C)CC(NCC2(C)CC(NC3=CC(=C(C#N)C#N)CC(C)(C)C3)CC(C)(C)C2)=CC(=C(C#N)C#N)C1` (centres unmarked) [MC37], the “λmax [nm]” value was 383(Aceto-nitrile) nm.

The series is the same for the next values; noted with them: in EtOH; Table MC1.
For the compound `CCOC(=O)C(C(=O)OCC)=C1C=C(NCCCCCCNC2=CC(=C(C(=O)OCC)C(=O)OCC)CCC2)CCC1` [MC19], the “λmax [nm]” value is on record as 370(EtOH) nm. The same measure, in the same setting: the figure for `CCOC(=O)C(C(=O)OCC)=C1C=C(NCCNC2=CC(=C(C(=O)OCC)C(=O)OCC)CC(C)(C)C2)CC(C)(C)C1` [MC03] is 383(EtOH) nm. For `CCOC(=O)C(C(=O)OCC)=C1C=C(NC2CCCCC2NC2=CC(=C(C(=O)OCC)C(=O)OCC)CC(C)(C)C2)CC(C)(C)C1` (centres unmarked) [MC10], the “λmax [nm]” value was 384(EtOH) nm. Still for that read-out and setting: the figure for `CC1(C)CC(NC2CCCCC2NC2=CC(=C(C#N)C#N)CC(C)(C)C2)=CC(=C(C#N)C#N)C1` (centres unmarked) [MC34] is 357/388(EtOH); for `CCOC(=O)/C(C#N)=C1\C=C(NC2CC(C)(C)CC(C)(CNC3=C/C(=C(\C#N)C(=O)OCC)CC(C)(C)C3)C2)CC(C)(C)C1` (centres unmarked) [MC24] it is 391(EtOH) nm. With `CCOC(=O)/C(C#N)=C1\C=C(N2CCN(C3=C/C(=C(/C#N)C(=O)OCC)CC(C)(C)C3)CC2)CC(C)(C)C1` [MC07], the “λmax [nm]” value was 406(EtOH) nm. For the compound `CCOC(=O)/C(C#N)=C1\C=C(NCCNC2=C/C(=C(/C#N)C(=O)OCC)CC(C)(C)C2)CC(C)(C)C1` [MC02], the “λmax [nm]” value is listed as 366,398(EtOH) nm. For `CCCCC(CC)COC(=O)/C(C#N)=C1/C=C(NC2CCCCC2NC2=C/C(=C(\C#N)C(=O)OCC(CC)CCCC)CCC2)CCC1` (centres unmarked) [MC36], the “λmax [nm]” value was 401(EtOH) nm. On the same count and under the same terms, the figure for `CCOC(=O)/C(C#N)=C1\C=C(NCCCCCCNC2=C/C(=C(/C#N)C(=O)OCC)CCC2)CCC1` [MC18] is 388(EtOH) nm. Still for that read-out and setting: the figure for `CCOC(=O)C(C(=O)OCC)=C1C=C(NCC2(C)CC(NC3=CC(=C(C(=O)OCC)C(=O)OCC)CC(C)(C)C3)CC(C)(C)C2)CC(C)(C)C1` (centres unmarked) [MC25] is 378(EtOH) nm. The same measure, in the same setting: the figure for `CCCCC(CC)COC(=O)/C(C#N)=C1/C=C(NCCNC2=C/C(=C(\C#N)C(=O)OCC(CC)CCCC)CC(C)(C)C2)CC(C)(C)C1` (centres unmarked) [MC01] is 366,398(EtOH) nm; for `COC(=O)C(C(=O)OC)=C1C=C(NC2CCCCC2NC2=CC(=C(C(=O)OC)C(=O)OC)CCC2)CCC1` (centres unmarked) [MC35] it is 389(EtOH) nm; for `CCOC(=O)C(C(=O)OCC)=C1C=C(N2CCN(C3=CC(=C(C(=O)OCC)C(=O)OCC)CC(C)(C)C3)CC2)CC(C)(C)C1` [MC08] it is 373(EtOH) nm.

Staying with this series, now noted: in EtOH; Table MC1a (intermediates, UV-B absorbers).
With `CC1(C)CC(=O)C=C(N2CCN(C3=CC(=O)CC(C)(C)C3)CC2)C1` [MC06a], the “λmax [nm]” value is reported as 309 (EtOH) nm.

Turning to `CC1(C)CC(=O)C=C(NCCNC2=CC(=O)CC(C)(C)C2)C1` [MC01a], the “λmax [nm]” value is 296 (EtOH) nm.
